Assay [1] deals with microorganisms. The assay is described as follows: Morphology, biofilm and growth disrupting peptides (Table 5). It is filed as cell-based. Also on record: key: A: Peptide aggregates; B: Less hyphal formation; Clumps; Diffuse clumps and small polyps; F: Diffuse growth; H: Thin; I: Growth inhibition; Microcolony formation; Rippled; Small polyps; Thick; W: Halo formation on top, microlonies on bottom. The text has this: In certain embodiments peptides that induce alterations in phenotype or other biological activities can also be used as antimicrobial effector moieties.

Assay [2] concerns microorganisms. Briefly: Targeting peptide binding to target microorganisms (Tables 3, 10, 12). As to conditions: microorganism(s) the targeting peptide binds; binding in aqueous buffers varied with peptide solubility, preferably 1x PBS.
The subject of assay [3] is microorganisms. The assay is described as follows: Peptide activities: targeting/binding, antimicrobial, growth or phenotype altering (Tables 7, 8). It is filed as cell-based. To be noted: peptides having multiple activities.

Entries after “also recorded” stand apart in the source; their conditions may differ.

Turning to “PF-153: peptide having multiple activities (chain 1 GILARADCSQIA; chain 2 GILARADCSQIA; Peptide with targeting and/or antimicrobial activity)”, in the assay with microorganisms [1], the “Organism, effect: C. jeikeium” value is “C. jeikeium (C)” and the “Organism, effect: S. epidermidis” value is “S. epidermidis (M)”. Also, the “Target(s)” value in the assay on microorganisms [2] is “M. luteus and P. mirabilis and E. coli and MRSA”. Also, the Activities entry with microorganisms [3] is “G B”.

For “PF-156: peptide having multiple activities (LITAEQPATAPIAGK; Peptide with targeting and/or antimicrobial activity)”, the “Organism, effect: MRSA” value in the assay on microorganisms [1] was “MRSA (H)”. The “Target(s)” value with microorganisms [2] was “S. epidermidis; also recorded: C. jeikeium”. In addition, in the assay with microorganisms [3], the Activities result was “G B”.

As for “PF-164: peptide having multiple activities (EEVSRALAGIGLGLGCRIG; Peptide with targeting and/or antimicrobial activity)”, the “Organism, effect: C. jeikeium” value in the assay with microorganisms [1] is “C. jeikeium (R)”. Besides, the “Target(s)” value in the assay with microorganisms [2] was “S. epidermidis; also recorded: M. luteus; also recorded: E. coli; also recorded: C. jeikeium”. The Activities result in the assay with microorganisms [3] is listed as “G B”.

“PF-171: peptide having multiple activities (TQVTLCRTW; Peptide with targeting and/or antimicrobial activity)”: in the assay on microorganisms [1], the “Organism, effect: B. subtilis” value was “B. subtilis (D)”; the “Organism, effect: C. jejuni” value is reported as “C. jejuni (R)”; the “Organism, effect: M. luteus” value was “M. luteus (R)”; the “Organism, effect: MRSA” value is recorded as “MRSA (M)”. For the same substance, in the assay with microorganisms [1], the “Organism, effect: S. epidermidis” value was “S. epidermidis (R)” and the “Organism, effect: S. pneumoniae” value is given as “S. pneumoniae (D)”. Moreover, the “Target(s)” value in the assay with microorganisms [2] is recorded as “S. epidermidis; also recorded: E. coli; also recorded: P. aeruginosa; also recorded: S. pneumoniae”. Moreover, the Activities result with microorganisms [3] is on record as “G B”.

Take “PF-173: peptide having multiple activities (AGRTAIVQGGG; Peptide with targeting and/or antimicrobial activity)”: in the assay with microorganisms [1], the “Organism, effect: C. jeikeium” value is “C. jeikeium (D)” and the “Organism, effect: S. epidermidis” value is recorded as “S. epidermidis (A)”. Also, in the assay on microorganisms [2], the “Target(s)” value is given as “S. epidermidis; also recorded: M. luteus; also recorded: P. mirabilis; also recorded: E. coli; also recorded: P. aeruginosa; also recorded: C. albicans; also recorded: C. jeikeium; also recorded: C. jejuni”. For the same substance, in the assay on microorganisms [3], the Activities entry is “G B”.

With “PF-175: peptide having multiple activities (RRRPAGQRPEKASQAMIAA; Peptide with targeting and/or antimicrobial activity)”, in the assay with microorganisms [1], the “Organism, effect: B. subtilis” value is given as “B. subtilis (D)”; the “Organism, effect: C. jejuni” value is listed as “C. jejuni (M)”; the “Organism, effect: M. luteus” value was “M. luteus (S)”; the “Organism, effect: S. pneumoniae” value is listed as “S. pneumoniae (A)”. For the same substance, the “Organism, effect: C. albicans” value in the assay with microorganisms [1] (C. albicans) was “C. albicans (B)”. The “Target(s)” value in the assay with microorganisms [2] was “S. epidermidis; also recorded: E. faecalis”. Also, the Activities entry in the assay with microorganisms [3] is “G B”.

On to “PF-176: peptide having multiple activities (RLTSNQFLTRITPFVFAQH; Peptide with targeting and/or antimicrobial activity)”, for which, in the assay with microorganisms [1], the “Organism, effect: C. jeikeium” value is “C. jeikeium (D)”; the “Organism, effect: M. luteus” value is “M. luteus (C)”; the “Organism, effect: S. epidermidis” value is given as “S. epidermidis (C)”. Also, the “Target(s)” value with microorganisms [2] is “S. epidermidis and M. luteus and P. mirabilis and E. coli and C. albicans and MRSA and E. faecalis and C. jeikeium”. The Activities entry in the assay on microorganisms [3] is on record as “G B”.

As to “PF-180: peptide having multiple activities (SGLGDLGFSSEAK; Peptide with targeting and/or antimicrobial activity)”, the “Organism, effect: S. epidermidis” value with microorganisms [1] is listed as “S. epidermidis (C)”. For the same substance, in the assay on microorganisms [2], the “Target(s)” value is “S. epidermidis and M. luteus and P. aeruginosa and C. albicans and MRSA and E. faecalis and C. jejuni and M. smegmatis”. Besides, the Activities entry with microorganisms [3] is “G B”.

Take “PF-186: peptide having multiple activities (DADKNLSLERDRFAWRVAAP; Peptide with targeting and/or antimicrobial activity)”: in the assay on microorganisms [1], the “Organism, effect: C. jeikeium” value is “C. jeikeium (A)” and the “Organism, effect: S. epidermidis” value is recorded as “S. epidermidis (C)”. Further, the “Target(s)” value with microorganisms [2] was “S. epidermidis and M. luteus and E. coli and P. aeruginosa and MRSA and C. jeikeium”. Besides, in the assay on microorganisms [3], the Activities result is given as “G B”.

With “PF-188: peptide having multiple activities (ARTFAGRLGTRYFGGLMRSTKA; Peptide with targeting and/or antimicrobial activity)”, the “Organism, effect: C. jeikeium” value with microorganisms [1] was “C. jeikeium (H)”. Also, the “Target(s)” value in the assay with microorganisms [2] is “S. epidermidis and M. luteus and E. coli and C. albicans and MRSA and E. faecalis”. Also, the Activities result with microorganisms [3] is listed as “G B”.

For “PF-191: peptide having multiple activities (QFCNFAWLFLASNNAQVSALA; Peptide with targeting and/or antimicrobial activity)”, in the assay on microorganisms [1], the “Organism, effect: C. jeikeium” value is reported as “C. jeikeium (R)”; the “Organism, effect: MRSA” value was “MRSA (H)”; the “Organism, effect: S. epidermidis” value is reported as “S. epidermidis (A)”. The “Target(s)” value with microorganisms [2] was “E. coli; also recorded: P. aeruginosa; also recorded: C. jejuni”. In the assay on microorganisms [3], the Activities result is listed as “G B”.

Take “PF-192: peptide having multiple activities (VEEDEAPPPHY; Peptide with targeting and/or antimicrobial activity)”: the “Organism, effect: S. epidermidis” value in the assay on microorganisms [1] is listed as “S. epidermidis (D)”. Besides, the “Target(s)” value in the assay on microorganisms [2] is given as “S. epidermidis; also recorded: M. luteus; also recorded: P. aeruginosa; also recorded: C. albicans; also recorded: E. faecalis; also recorded: C. jeikeium”. Also, the Activities result in the assay on microorganisms [3] is given as “G B”.

Turning to “PF-204: peptide having multiple activities (ALQKQDMNLPSVKNQLVFLKSTG; Peptide with targeting and/or antimicrobial activity)”, in the assay on microorganisms [1], the “Organism, effect: C. jeikeium” value is given as “C. jeikeium (D)”; the “Organism, effect: M. luteus” value was “M. luteus (C)”; the “Organism, effect: S. epidermidis” value is listed as “S. epidermidis (C)”. For the same substance, the “Organism, effect: P. aeruginosa” value with microorganisms [1] (P. aeruginosa) was “P. aeruginosa (H)”. Also, the “Target(s)” value in the assay on microorganisms [2] is given as “S. epidermidis; also recorded: P. mirabilis; also recorded: E. coli; also recorded: P. aeruginosa; also recorded: C. albicans; also recorded: C. jejuni”. The Activities entry with microorganisms [3] is given as “G B”.

Turning to “PF-208: peptide having multiple activities (DAYHCHLVRSPDAHDLSMRIGFV; Peptide with targeting and/or antimicrobial activity)”, in the assay on microorganisms [1], the “Organism, effect: C. jeikeium” value is “C. jeikeium (A)” and the “Organism, effect: S. epidermidis” value was “S. epidermidis (D)”. In addition, in the assay on microorganisms [2], the “Target(s)” value was “S. epidermidis and C. albicans and MRSA and S. pneumoniae and E. faecalis and C. jeikeium and C. jejuni”. Also, in the assay on microorganisms [3], the Activities result is listed as “G B”.

Regarding “PF-212: peptide having multiple activities (NDSKASN; Peptide with targeting and/or antimicrobial activity)”, the “Organism, effect: M. luteus” value in the assay with microorganisms [1] is “M. luteus (M)”. In addition, the “Target(s)” value with microorganisms [2] is “M. luteus; also recorded: P. aeruginosa”. Besides, the Activities result in the assay on microorganisms [3] was “G B”.

In the case of “PF-215: peptide having multiple activities (ELKITNYNVNTVLYRYYKWGNDLCE; Peptide with targeting and/or antimicrobial activity)”, in the assay with microorganisms [1], the “Organism, effect: M. luteus” value was “M. luteus (T)”. Also, the “Target(s)” value in the assay with microorganisms [2] is recorded as “S. epidermidis; also recorded: M. luteus; also recorded: P. aeruginosa; also recorded: A. baumannii”. Moreover, in the assay on microorganisms [3], the Activities entry was “G B”.

As to “PF-224: peptide having multiple activities (DYFYITLSQKNTF; Peptide with targeting and/or antimicrobial activity)”, the “Organism, effect: M. luteus” value in the assay on microorganisms [1] was “M. luteus (T)”. Besides, in the assay with microorganisms [2], the “Target(s)” value is “S. epidermidis; also recorded: P. aeruginosa; also recorded: A. baumannii”. Moreover, the Activities entry in the assay on microorganisms [3] is on record as “G B”.

Take “PF-233: peptide having multiple activities (DANAMARTTIAIVYILALIALTISYSL; Peptide with targeting and/or antimicrobial activity)”: the “Organism, effect: S. epidermidis” value with microorganisms [1] was “S. epidermidis (C)”. Also, the “Target(s)” value in the assay on microorganisms [2] was “S. epidermidis; also recorded: M. luteus; also recorded: P. aeruginosa; also recorded: A. baumannii”. The Activities result in the assay with microorganisms [3] was “G B”.

As for “PF-234: peptide having multiple activities (RTPYILRS; Peptide with targeting and/or antimicrobial activity)”, the “Organism, effect: M. luteus” value in the assay on microorganisms [1] is listed as “M. luteus (T)”. In addition, in the assay on microorganisms [2], the “Target(s)” value is reported as “S. epidermidis; also recorded: M. luteus”. Also, the Activities entry in the assay on microorganisms [3] is “G B”.

In the case of “PF-235: peptide having multiple activities (GIPFSKPHKRQVNYMKSDVLAYIEQNKMAHTA; Peptide with targeting and/or antimicrobial activity)”, the “Organism, effect: M. luteus” value in the assay on microorganisms [1] is “M. luteus (T)”. In addition, in the assay with microorganisms [2], the “Target(s)” value is reported as “S. epidermidis; also recorded: M. luteus”. In addition, in the assay with microorganisms [3], the Activities result was “G B”.

Consider “PF-249: peptide having multiple activities (chain 1 INSRYKISF; chain 2 INSRYKISF; Peptide with targeting and/or antimicrobial activity)”, for which the “Organism, effect: M. luteus” value with microorganisms [1] is given as “M. luteus (R)”. In the assay on microorganisms [2], the “Target(s)” value is “S. epidermidis; also recorded: M. luteus”. Besides, in the assay on microorganisms [3], the Activities entry is recorded as “G B”.
